# Assays:
# Oryctolagus cuniculus = species on record: Oryctolagus cuniculus; experiment: Inhibition of rabbit-osteoclast mediated resorption of dentine slices
# [1] = Compound was tested for toxicity by the presence of tartrate resistant acid phosphatase (TRAP)-positive cell; Normal; type: functional
# [2] = target: Proto-oncogene tyrosine-protein kinase Src (Homo sapiens, UniProt P12931); experiment: Inhibition of Src protein tyrosine kinase
# Sequence of Proto-oncogene tyrosine-protein kinase Src (P12931 2-536 limits assumed): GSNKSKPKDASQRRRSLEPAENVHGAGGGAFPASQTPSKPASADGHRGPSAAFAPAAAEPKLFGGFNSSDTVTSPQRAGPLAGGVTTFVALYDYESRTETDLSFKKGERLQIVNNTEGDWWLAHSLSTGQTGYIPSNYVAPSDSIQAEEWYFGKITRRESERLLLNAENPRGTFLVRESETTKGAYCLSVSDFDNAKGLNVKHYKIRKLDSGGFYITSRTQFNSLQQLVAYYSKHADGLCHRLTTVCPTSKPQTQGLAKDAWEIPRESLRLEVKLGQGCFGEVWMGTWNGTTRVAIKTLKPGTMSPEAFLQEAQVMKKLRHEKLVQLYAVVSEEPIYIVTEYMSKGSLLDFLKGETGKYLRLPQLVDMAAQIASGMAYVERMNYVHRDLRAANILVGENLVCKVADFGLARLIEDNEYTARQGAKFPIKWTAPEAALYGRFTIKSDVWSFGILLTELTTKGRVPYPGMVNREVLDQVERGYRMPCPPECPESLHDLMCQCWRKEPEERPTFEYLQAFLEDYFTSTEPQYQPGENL
IC50 (Oryctolagus cuniculus) [nM],IC50 [2] [nM],Compound,TRAP staining [1]
4000,,Cn1c(=O)c(-c2c(Cl)cccc2Cl)cc2cnc(Nc3cccc(P(=O)(O)CP(=O)(O)O)c3)nc21,Not toxic
3000,,Cn1c(=O)c(-c2c(Cl)cccc2Cl)cc2cnc(Nc3ccc(P(=O)(O)CP(=O)(O)O)cc3)nc21,Not toxic
800,,CN(C)CCCn1c(=O)c(-c2c(Cl)cccc2Cl)cc2cnc(Nc3ccc(P(=O)(O)CP(=O)(O)O)cc3)nc21,Not toxic
,16,Cn1c(=O)c(-c2c(Cl)cccc2Cl)cc2cnc(Nc3ccccc3)nc21,

# Source: ChEMBL document CHEMBL1136210, “Bone-targeted pyrido[2,3-d]pyrimidin-7-ones: potent inhibitors of Src tyrosine kinase as novel antiresorptive agents” (Bioorg Med Chem Lett, 2003)
